This is an account of results in paper PMC5963102 (International Journal for Parasitology: Drugs and Drug …, 2017).

Experiment [1] deals with Asu-ACR-16 (nicotine sensitive nAChR) (Ascaris suum, UniProt F1KYJ9). Nature of the experiment: Two-electrode voltage-clamp on Asu-ACR-16 nAChR expressed in Xenopus laevis oocytes. The class given is cell-based. How it is done:
(§1) All nAChR subunit and ancillary factor cRNAs from A. suum (Asu-acr-16 and Asu-ric-3), O. dentatum (Ode-unc-29, Ode-unc-38, […] and Ode-acr-8) and H. contortus (Hco-ric-3, Hco-unc-50 and Hco-unc-74) were prepared as previously described ([Abongwa et al., 2016a], [Buxton et al., 2014]). Briefly, defolliculated X. laevis oocytes were obtained from Ecocyte Bioscience (Austin, TX, USA). A Nanoject II microinjector (Drummond Scientific, Broomall, PA, USA) was used to inject cRNA into the cytoplasm at the animal pole region of the oocytes. Homomeric nAChRs comprising Asu-ACR-16 subunits were expressed by co-injecting 25 ng of Asu-acr-16 with 5 ng of Asu-ric-3 in a total volume of 50 nl in nuclease-free water. Heteromeric nAChRs from O. dentatum were expressed by co-injecting 1.8 ng of each subunit cRNA that make up the levamisole (Ode-unc-29, Ode-unc-38, […] and Ode-acr-8) or pyrantel/tribendimidine (Ode-unc-29, Ode-unc-38 and Ode-unc-63) receptor with 1.8 ng of each H. contortus ancillary factor (Hco-ric-3, Hco-unc-50 and Hco-unc-74) in a total volume of 36 nl in nuclease-free water. Injected oocytes were transferred to 96-well microtiter plates containing 200 μl incubation solution (100 mM NaCl, 2 mM KCl, 1.8 mM CaCl2·2H20, 1 mM MgCl2·6H20, 5 mM HEPES, 2.5 mM Na pyruvate, 100 U·ml^−1penicillin and 100 μg ml^−1 streptomycin, pH 7.5) and incubated at 19 °C for 5–7 days to allow for functional receptor expression. Incubation solution was changed daily.
(§2) Currents produced by activation of expressed Asu-ACR-16 and Ode levamisole sensitive and Ode pyrantel/tribendimidine sensitive receptors were recorded using the two-electrode voltage-clamp electrophysiology technique as previously described ([Abongwa et al., 2016a], [Buxton et al., 2014]). 100 μM BAPTA-AM was added to the oocyte incubation solution about 4 h prior to recording to prevent activation of endogenous calcium-activated chloride currents during recording. Recordings were made using an Axoclamp 2B amplifier (Molecular Devices, Sunnyvale, CA, USA) and data acquired on a computer with Clampex 10.3 (Molecular Devices, Sunnyvale, CA, USA). For all experiments, oocytes were voltage-clamped at −60 mV. Microelectrodes for impaling oocytes were pulled using a Flaming/Brown horizontal electrode puller (Model P-97; Sutter Instruments, Novato, CA, USA). The microelectrodes were filled with 3 M KCl and their tips carefully broken with a piece of tissue paper to attain a resistance of 2–5 MΩ in recording solution (100 mM NaCl, 2.5 mM KCl, 1 mM CaCl2·2H2O and 5 mM HEPES, pH 7.3).
(§3) Electrophysiology data was measured with Clampfit 10.3 (Molecular devices, Sunnyvale CA, USA) and analyzed with GraphPad Prism 5.0 (GraphPad Software Inc., La Jolla, CA, USA). […] Concentration-response relationships (for each oocyte) were analyzed by fitting log concentration-response data points with the Hill equation as previously described ([Boulin et al., 2008]). % inhibition for monepantel was calculated using 100-Rmax for each experiment and plotted as mean ± s.e.m. on the concentration-inhibition plots. IC50's were calculated as previously described ([Zheng et al., 2016]). We used one-way ANOVA to test for statistical differences among treatment groups. If the group means were statistically different (p < .05), we used the Tukey multiple comparison test to determine significant differences between groups.
A general note: In two-electrode clamp one electrode senses voltage and the other passes current.

Experiment [2] addresses Ode pyrantel/tribendimidine nAChR (Ode-UNC-29:Ode-UNC-38:Ode-UNC-63) (Oesophagostomum dentatum, UniProt E5KIX9+V5J2B2+V5J336). Nature of the experiment: Two-electrode voltage-clamp on Ode pyrantel/tribendimidine receptors expressed in Xenopus laevis oocytes. The class given is cell-based. How it is done: as §1, §2, §3
Experiment [3] deals with Ode levamisole nAChR (Ode-UNC-29:Ode-UNC-38:Ode-UNC-63:Ode-ACR-8) (Oesophagostomum dentatum, UniProt E5KIX9+L7MMZ7+V5J2B2+V5J336). Nature of the experiment: Two-electrode voltage-clamp on Ode levamisole receptors expressed in Xenopus laevis oocytes. It counts as cell-based. How it is done: as §1
as §2, with “Microelectrodes for impaling oocytes were pulled using a Flaming/Brown horizontal electrode puller (Model P-97; Sutter Instruments, Novato, CA, USA). The microelectrodes were filled with 3 M KCl and their tips carefully broken with a piece of tissue paper to attain a resistance of 2–5 MΩ in recording solution (100 mM NaCl, 2.5 mM KCl, 1 mM CaCl2·2H2O and 5 mM HEPES, pH 7.3).” left out
Electrophysiology data was measured with Clampfit 10.3 (Molecular devices, Sunnyvale CA, USA) and analyzed with GraphPad Prism 5.0 (GraphPad Software Inc., La Jolla, CA, USA). […] Concentration-response relationships (for each oocyte) were analyzed by fitting log concentration-response data points with the Hill equation as previously described ([Boulin et al., 2008]). % inhibition for monepantel was calculated using 100-Rmax for each experiment and plotted as mean ± s.e.m. on the concentration-inhibition plots. IC50's were calculated as previously described ([Zheng et al., 2016]). […]

The next experiment has as its system A. suum muscle flaps. Nature of the experiment: Muscle contraction assay, isometric contractions of Ascaris body muscle flaps. It counts as cell-based, Ascaris suum. To be noted: for EC50: Ascaris suum. How it is done:
Adult A. suum were collected from the IMES slaughterhouse, Belgrade, Serbia and maintained in Locke's solution (155 mM NaCl, 5 mM KCl, 2 mM CaCl2, 1.5 mM NaHCO3 and 5 mM glucose) at 32 °C for 5 days. Locke's solution was changed daily. Ascaris muscle flaps for contraction studies were prepared as described in [Trailović et al. (2015)]. Briefly, 1 cm muscle body flaps were prepared by dissecting the anterior 2–3 cm part of the worm. A force transducer in an experimental bath containing 20 ml APF (23 mM NaCl, 110 mM Na acetate, 24 mM KCl, 6 mM CaCl2, 5 mM MgCl2, 11 mM glucose, 5 mM HEPES, pH 7.6) and 0.1% DMSO and bubbled with nitrogen was attached to each muscle flap. The bath was maintained at 37 °C during which isometric contractions of each flap were monitored on a PC computer using a BioSmart interface and eLAB software (EIUnit, Belgrade). The system allows real time recording, display and analysis of experimental data.
Isometric contractions of each Ascaris muscle flap in the absence and presence of monepantel were monitored on a PC computer using eLAB software (EIUnit, Belgrade). GraphPad Prism 5.0 (GraphPad Software Inc., La Jolla, CA, USA) was used to analyze the data. […] Single concentration-response relationships were fitted to the data as described in Section 2.5.1.

The subject of the next experiment is A. suum. Details: method as in Tritten et al., 2011. The settings on record: 600 mg/kg; ref Tritten et al., 2011; cited from earlier work.
For experiment [4], the system named is H. contortus MPTL-1 receptors. Set-up: method as in Baur et al., 2015. To be noted: ref Baur et al., 2015, cited from earlier work.
Experiment [5] has as its system C. elegans ACR-20 receptors. Set-up: method as in Baur et al., 2015. The settings on record: ref Baur et al., 2015, cited from earlier work.
Setting [6] is: read-out: acetylcholine Rmax (mean ± s.e.m.).

Structures are written as SMILES. Where two headings read alike, the source gives them in different places. Where only a bound is given, the exact number is not on record here.

Sequence of Ode pyrantel/tribendimidine nAChR (Ode-UNC-29:Ode-UNC-38:Ode-UNC-63) (V5J336 entry or part of it): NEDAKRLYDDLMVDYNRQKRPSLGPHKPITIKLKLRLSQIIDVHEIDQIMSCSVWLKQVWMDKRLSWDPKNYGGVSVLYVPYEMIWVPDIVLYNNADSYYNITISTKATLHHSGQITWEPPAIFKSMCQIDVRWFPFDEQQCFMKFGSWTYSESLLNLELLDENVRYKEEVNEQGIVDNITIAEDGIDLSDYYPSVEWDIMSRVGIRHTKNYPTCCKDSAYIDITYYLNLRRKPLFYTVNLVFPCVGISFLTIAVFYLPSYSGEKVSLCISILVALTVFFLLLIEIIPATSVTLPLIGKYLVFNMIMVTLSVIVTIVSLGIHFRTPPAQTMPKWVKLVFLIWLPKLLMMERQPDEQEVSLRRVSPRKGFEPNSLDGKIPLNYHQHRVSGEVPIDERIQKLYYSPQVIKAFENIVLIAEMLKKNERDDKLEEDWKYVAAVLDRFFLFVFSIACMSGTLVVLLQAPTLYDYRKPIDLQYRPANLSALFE
Sequence of Ode pyrantel/tribendimidine nAChR (Ode-UNC-29:Ode-UNC-38:Ode-UNC-63) (V5J2B2 entry or part of it): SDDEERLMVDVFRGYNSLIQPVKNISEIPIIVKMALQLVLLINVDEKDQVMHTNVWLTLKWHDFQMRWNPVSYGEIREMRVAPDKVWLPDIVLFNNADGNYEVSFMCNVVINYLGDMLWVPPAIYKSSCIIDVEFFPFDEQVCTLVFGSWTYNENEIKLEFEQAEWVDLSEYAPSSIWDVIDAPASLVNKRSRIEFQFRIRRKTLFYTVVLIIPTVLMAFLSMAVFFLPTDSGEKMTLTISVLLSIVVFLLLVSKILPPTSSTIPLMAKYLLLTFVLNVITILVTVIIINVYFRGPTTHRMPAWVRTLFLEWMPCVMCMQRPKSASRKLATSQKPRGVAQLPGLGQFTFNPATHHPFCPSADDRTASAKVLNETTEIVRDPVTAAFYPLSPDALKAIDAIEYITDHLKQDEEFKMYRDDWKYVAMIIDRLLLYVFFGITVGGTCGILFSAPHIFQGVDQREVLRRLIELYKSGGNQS
Sequence of Ode pyrantel/tribendimidine nAChR (Ode-UNC-29:Ode-UNC-38:Ode-UNC-63) (E5KIX9 entry or part of it): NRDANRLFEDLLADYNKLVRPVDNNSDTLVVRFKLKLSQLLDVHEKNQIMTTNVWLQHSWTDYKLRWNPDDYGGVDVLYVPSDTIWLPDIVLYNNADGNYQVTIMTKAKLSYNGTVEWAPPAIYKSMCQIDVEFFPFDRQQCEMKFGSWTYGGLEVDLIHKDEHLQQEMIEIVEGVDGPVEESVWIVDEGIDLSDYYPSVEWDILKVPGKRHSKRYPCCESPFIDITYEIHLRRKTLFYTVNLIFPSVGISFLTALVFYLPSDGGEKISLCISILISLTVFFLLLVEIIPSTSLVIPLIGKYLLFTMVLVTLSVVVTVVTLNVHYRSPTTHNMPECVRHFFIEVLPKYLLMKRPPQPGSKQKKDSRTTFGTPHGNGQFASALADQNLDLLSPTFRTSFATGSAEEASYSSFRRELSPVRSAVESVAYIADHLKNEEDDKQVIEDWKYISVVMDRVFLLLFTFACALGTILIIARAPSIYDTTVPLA
Sequence of Asu-ACR-16 (nicotine sensitive nAChR) (F1KYJ9 entry or part of it): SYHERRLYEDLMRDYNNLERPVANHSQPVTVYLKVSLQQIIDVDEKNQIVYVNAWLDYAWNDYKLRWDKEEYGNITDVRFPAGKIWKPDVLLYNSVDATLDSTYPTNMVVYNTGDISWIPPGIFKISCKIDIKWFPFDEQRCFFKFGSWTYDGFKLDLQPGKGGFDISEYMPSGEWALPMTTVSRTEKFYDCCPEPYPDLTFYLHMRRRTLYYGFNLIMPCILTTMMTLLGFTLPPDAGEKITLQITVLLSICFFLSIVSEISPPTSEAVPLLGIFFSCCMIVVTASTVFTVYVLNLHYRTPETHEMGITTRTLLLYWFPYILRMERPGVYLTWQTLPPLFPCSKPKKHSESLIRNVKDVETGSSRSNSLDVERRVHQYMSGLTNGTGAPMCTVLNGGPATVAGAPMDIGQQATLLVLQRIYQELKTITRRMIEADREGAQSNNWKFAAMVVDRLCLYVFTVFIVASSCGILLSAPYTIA
Sequence of Ode levamisole nAChR (Ode-UNC-29:Ode-UNC-38:Ode-UNC-63:Ode-ACR-8) (L7MMZ7 entry or part of it): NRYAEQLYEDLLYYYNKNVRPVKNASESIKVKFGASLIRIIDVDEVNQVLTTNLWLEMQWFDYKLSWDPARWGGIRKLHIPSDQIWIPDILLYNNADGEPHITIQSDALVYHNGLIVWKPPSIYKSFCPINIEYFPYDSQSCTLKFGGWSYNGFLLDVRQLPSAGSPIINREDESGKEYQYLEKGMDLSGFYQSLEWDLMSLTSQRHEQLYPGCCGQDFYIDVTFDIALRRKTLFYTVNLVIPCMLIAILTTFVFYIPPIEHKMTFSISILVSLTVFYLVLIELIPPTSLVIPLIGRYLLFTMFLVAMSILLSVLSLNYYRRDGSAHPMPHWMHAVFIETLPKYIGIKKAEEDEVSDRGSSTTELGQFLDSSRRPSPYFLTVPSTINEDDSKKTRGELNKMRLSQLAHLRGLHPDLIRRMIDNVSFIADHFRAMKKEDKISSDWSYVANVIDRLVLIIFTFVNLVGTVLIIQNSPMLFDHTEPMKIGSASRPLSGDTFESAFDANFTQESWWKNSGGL
Sequence of Ode levamisole nAChR (Ode-UNC-29:Ode-UNC-38:Ode-UNC-63:Ode-ACR-8) (V5J2B2 entry or part of it): as the sequence (V5J2B2 entry or part of it) above
Sequence of Ode levamisole nAChR (Ode-UNC-29:Ode-UNC-38:Ode-UNC-63:Ode-ACR-8) (E5KIX9 entry or part of it): as the sequence (E5KIX9 entry or part of it) above
Sequence of Ode levamisole nAChR (Ode-UNC-29:Ode-UNC-38:Ode-UNC-63:Ode-ACR-8) (V5J336 entry or part of it): as the sequence (V5J336 entry or part of it) above

For the compound `CC(=O)OCC[N+](C)(C)C` [Acetylcholine], the Emax was found to be 97.5 ± 1.2% in experiment [1] (setting [6]), 118 ± 4.5% in experiment [2] (setting [6]) and 108.8 ± 1% in experiment [3] (setting [6]). Also, the EC50 (as a rule, the concentration at which the effect is half-maximal) in experiment [2] was 11.3 ± 1.3 µM; in the experiment with A. suum muscle flaps (read-out: acetylcholine EC50 (contraction)) it was 5.3 µM; with A. suum muscle flaps (read-out: acetylcholine log EC50 ± s.e.m. (contraction) (converted)), 5.01 µM. Moreover, in the experiment with A. suum muscle flaps (acetylcholine alone (control)), the “acetylcholine Rmax (mean ± s.e.m.), contraction” value is 1.7 ± 0.4 g.

Turning to `C[C@](C#N)(COc1cc(C#N)ccc1C(F)(F)F)NC(=O)c1ccc(SC(F)(F)F)cc1` [monepantel, N-[(2S)-2-cyano-1-[5-cyano-2-(trifluoromethyl)phenoxy]propan-2-yl]-4-(trifluoromethylsulfanyl)benzamide], the half-maximal inhibitory concentration (IC50) – broadly, the concentration at which inhibition is half-maximal – in experiment [1] was 0.2 µM; in experiment [2], 1.7 ± 0.7 µM; in experiment [3], 5 ± 0.5 µM. Besides, the “type of antagonism of acetylcholine responses” value in experiment [1] (co-applied with acetylcholine) is given as “non-competitive antagonism”; in experiment [2] (co-applied with acetylcholine), “non-competitive antagonism”; in experiment [3] (co-applied with acetylcholine), “non-competitive antagonist”. Moreover, the maximum inhibition in experiment [1] (component with IC50 1.6 nM) is 40%; in experiment [1] (component with IC50 0.2 μM), approximately 100%. In addition, the “agonist action (receptor activation)” value in experiment [1] (monepantel applied on its own) is listed as “did not cause activation”; in experiment [2] (monepantel alone) it was “did not activate”; in experiment [3] (monepantel applied alone) it was “failed to activate”. For the same compound, the “type of antagonism of acetylcholine induced contractions” value with A. suum muscle flaps (1-30 μM monepantel) was “mixture of competitive and non-competitive antagonism”. For the same compound, the “acetylcholine Rmax (mean ± s.e.m.), contraction” value is 1.1 ± 0.3 g with A. suum muscle flaps (in the presence of 3 μM monepantel), 1.1 ± 0.5 g in the experiment with A. suum muscle flaps (in the presence of 10 μM monepantel) and 0.5 ± 0.4 g in the experiment with A. suum muscle flaps (in the presence of 30 μM monepantel). Moreover, the “effect on baseline tension” value in the experiment on A. suum muscle flaps (monepantel on its own) is “did not produce any significant change in baseline tension”. Also, the “in vivo activity against A. suum” value in the experiment with A. suum is “lack in vivo activity”. The “concentration at which it acts as direct agonist” value in experiment [4] (high concentrations) and in experiment [5] (high concentrations) was more than 0.1 µM each time. Besides, the “concentration at which it acts as positive allosteric modulator” value in experiment [4] (low concentrations) and in experiment [5] (low concentrations) was less than 1 nM each time.
